According to US20070154981A1, “Insulin-producing cells derived from stem cells” (THE BOARD of TRUSTEES of the LELAND STANFORD JUNIOR …, priority 2003, published 2007):

System: human NS cells
Assay: Insulin content of IPCCs derived from human NS cells, by ELISA
Format: cell-based
Source text: Human NS cells from StemCells Inc. (Palo Alto, Calif.). Until stage 1, cells are maintained in neurospheres as described in Uchida et al, 2000, Proc Natl Acad Sci U S A. 2000 Dec. 19;97(26):14720-5. […]

CC1=C(/C=C/C(C)=C/C=C/C(C)=C/C(=O)O)C(C)(C)CCC1 [retinoic acid, all-trans-Retinoic acid]
insulin levels relative to levels found in human pancreatic islets (1 micromolar retinoic acid for 6 days, stage 2 IPCCs, ELISA): 0.1% | insulin production compared with cells cultured with SHH and retinoic acid (retinoic acid alone versus SHH and retinoic acid): higher level of insulin production
